# According to patent US7803992B2, “Methods and compositions for expressing an herbicide-tolerant polynucleotide” (Pioneer Hi-Bred International, Inc., priority 2005, dated 2010):
# Columns and labels:
# [1] = tested on: Wild Type soybeans (Jack); experiment: Postemergence herbicide treatment of soybeans in greenhouse, visual injury; type: in vivo, soybean; details: postemergence, glyphosate 8960, tribenuron-methyl 35, rimsulfuron 35 g/ha
# Procedure: (§1) Young regenerated transgenic plants were sprayed with 1× glyphosate (1× rate of glyphosate is 1120 g/ha of glyphosate isopropylamine) to cull segregants. Four replications were performed for each treatment. Plants were then treated with various herbicides, including glyphosate and ALS-inhibitor herbicides.
# (§2) Six soybean seeds from each variety to be assayed were planted 1 cm deep in 5.5 (13.97 cm) inch square plastic container of a synthetic growth medium. […] When possible, containers were thinned to two uniform plants. Non-transgenic lines were thinned to two uniform plants per container.
# (§3) Results are expressed below in Table 11 as the mean of four replications.
# GAT-HRA soybeans = experiment: as above; type: in vivo, soybean; details: postemergence, glyphosate 8960, tribenuron-methyl 35, rimsulfuron 35 g/ha
# Procedure: as §1, §2, §3
# [2] = tested on: parent elite stiff stalk inbred corn; experiment: Postemergence herbicide application in greenhouse: fresh shoot weight and visual injury; type: in vivo; details: postemergence, 200 g/ha (glyphosate 3472 g ae/ha, glufosinate ammonium 1870 g/ha), mean of four replications
# [3] = tested on: Heterozygous GAT-HRA corn; experiment: Preemergence herbicide application in greenhouse: fresh shoot weight and visual injury; type: in vivo; details: preemergence, 200 g/ha, mean of four replications
# [4] = tested on: parent elite stiff stalk inbred corn; experiment: as above; type: in vivo; details: preemergence, 200 g/ha, mean of four replications
# STS ® soybeans = experiment: Postemergence herbicide treatment of soybeans in greenhouse, visual injury; type: in vivo, soybean
# Description: When possible, containers were thinned to two uniform plants.
# [5] = tested on: Untransformed Coker 312 cotton; experiment: Greenhouse over the top herbicide spray of cotton; type: in vivo, Gossypium hirsutum; details: glyphosate 1.5 lb ae/acre, 2 weeks after application; rimsulfuron 16 g active ingredient/hectare without glyphosate
# Description: Transformed cotton plants were rooted and then transferred to soil for further growth. Plants were then subjected to herbicide spray treatments in a greenhouse. […] Untransformed Coker 312 control plants were dead 2 weeks after glyphosate application. […] Plants transformed with both GAT and HRA were further subjected to an “over the top” application of the sulfonylurea herbicide rimsulfuron at a rate of 16 g active ingredient/hectare. […] In further experiments 32 g ai/ha rimsulfuron were applied to the cotton.
# [6] = tested on: Heterozygous GAT-HRA corn; experiment: Postemergence herbicide application in greenhouse: fresh shoot weight and visual injury; type: in vivo; details: postemergence, 200 g/ha (glyphosate 3472 g ae/ha, glufosinate ammonium 1870 g/ha), mean of four replications
# [7] = Zea mays, post-emergence, 0% no injury, 100% plant death, read-out: % Visual Injury
# [8] = Zea mays, pre-emergence, 672 h, 0% no injury, 100% plant death, read-out: % Visual Injury
smiles,measurement,setting,value
CCS(=O)(=O)c1cccnc1S(=O)(=O)NC(=O)Nc1nc(OC)cc(OC)n1 [Rimsulfuron],% Visual Injury,[1]; Wild Type line 82,97%
same,% Visual Injury,[1]; Wild Type line Jack,97%
same,% Visual Injury,"[1]; Wild Type, mean",97%
same,% Visual Injury,"GAT-HRA soybeans; event 59, mean",87%
same,% Visual Injury,GAT-HRA soybeans; event 59 line 21,88%
same,% Visual Injury,GAT-HRA soybeans; event 59 line 28,86%
same,% Visual Injury,"GAT-HRA soybeans; event 60, mean",83%
same,% Visual Injury,GAT-HRA soybeans; event 60 line 07,84%
same,% Visual Injury,GAT-HRA soybeans; event 60 line 11,83%
same,% Visual Injury,GAT-HRA soybeans; event 60 line 22,76%
same,% Visual Injury,GAT-HRA soybeans; event 60 line 35,85%
same,% Visual Injury,GAT-HRA soybeans; event 60 line 41,80%
same,% Visual Injury,GAT-HRA soybeans; event 60 line 46,78%
same,% Visual Injury,GAT-HRA soybeans; event 60 line 70,80%
same,% Visual Injury,GAT-HRA soybeans; event 60 line 75,86%
same,% Visual Injury,GAT-HRA soybeans; event 60 line 77,90%
same,% Visual Injury,GAT-HRA soybeans; event 60 line 79,86%
same,% Visual Injury,GAT-HRA soybeans; event 60 line 82,90%
same,% Visual Injury,GAT-HRA soybeans; event 60 line 84,83%
same,% Visual Injury,"GAT-HRA soybeans; event 61, mean",82%
same,% Visual Injury,GAT-HRA soybeans; event 61 line 02,80%
same,% Visual Injury,GAT-HRA soybeans; event 61 line 02B,70%
same,% Visual Injury,GAT-HRA soybeans; event 61 line 05,78%
same,% Visual Injury,GAT-HRA soybeans; event 61 line 14,90%
same,% Visual Injury,GAT-HRA soybeans; event 61 line 18,89%
same,% Visual Injury,GAT-HRA soybeans; event 61 line 24,90%
same,% Visual Injury,GAT-HRA soybeans; event 61 line 33,95%
same,% Visual Injury,GAT-HRA soybeans; event 61 line 34,90%
same,% Visual Injury,GAT-HRA soybeans; event 61 line 47,78%
same,% Visual Injury,GAT-HRA soybeans; event 61 line 49,84%
same,% Visual Injury,GAT-HRA soybeans; event 61 line 51,83%
same,% Visual Injury,GAT-HRA soybeans; event 61 line 60,73%
same,% Visual Injury,GAT-HRA soybeans; event 61 line 62,71%
same,% Visual Injury,GAT-HRA soybeans; event 61 line 99,79%
same,% Visual Injury,"GAT-HRA soybeans; event 64, mean",73%
same,% Visual Injury,GAT-HRA soybeans; event 64 line 41,73%
same,% Visual Injury,GAT-HRA soybeans; event 64 line 47,73%
same,pest or weed control at 200 g/ha,[2]; [7],91%
same,Fresh Weight,"[2]; weighed 2 weeks after treatment, untreated 76.4 g",12.6 g
same,pest or weed control at 200 g/ha,[3]; [8],0%
same,Fresh Weight,"[3]; fresh shoots weighed 4 weeks after treatment, untreated 47.0 g",45.3 g
same,pest or weed control at 200 g/ha,[4]; [8],74%
same,Fresh Weight,"[4]; fresh shoots weighed 4 weeks after treatment, untreated 36.7 g",29.8 g
same,% Visual Injury,"STS ® soybeans; STS ® line 25, glyphosate 8960, tribenuron-methyl 35, rimsulfuron 35 g/ha",97%
same,% Visual Injury,"STS ® soybeans; STS ® line 46, glyphosate 8960, tribenuron-methyl 35, rimsulfuron 35 g/ha",97%
same,% Visual Injury,"STS ® soybeans; STS ®, mean, glyphosate 8960, tribenuron-methyl 35, rimsulfuron 35 g/ha",97%
same,damage to untransformed control plants,[5],severe damage
same,pest or weed control at 200 g/ha,[6]; [7],10%
same,Fresh Weight,"[6]; weighed 2 weeks after treatment, untreated 98.8 g",99.2 g
